Results from patent US12522583B2, “Benzimidazole derivatives and aza-benzimidazole derivatives as Janus kinase 2 inhibitors and uses thereof” (Dana-Farber Cancer Institute, Inc., priority 2018, dated 2026).

Legend:
Assay in all cases: KINOMEscan
Type in all cases: binding
Conditions in all cases: read-out: percent control
[1] = molecular target: ABL1(Q252H)-phosphorylated (Homo sapiens (Human), UniProt P00519, Q252H)
From the text: (§1) Example 2. In Vitro Kinase Selectivity Profiling of the Compounds of the Present Disclosure

[2] = molecular target: ABL1(T315I)-phosphorylated (Homo sapiens (Human), UniProt P00519, T315I)
From the text: as §1

BRAF = BRAF (Homo sapiens (Human), UniProt P15056)
From the text: as §1

BRK = BRK (Homo sapiens (Human), UniProt Q13882)
From the text: as §1

CAMK1B = CAMK1B (Homo sapiens (Human), UniProt Q6P2M8)
From the text: as §1

CAMKK1 = CAMKK1 (Homo sapiens (Human), UniProt Q8N5S9)
From the text: as §1

CLK3 = CLK3 (Homo sapiens (Human), UniProt P49761)
CLK3, sequence (P49761 whole entry): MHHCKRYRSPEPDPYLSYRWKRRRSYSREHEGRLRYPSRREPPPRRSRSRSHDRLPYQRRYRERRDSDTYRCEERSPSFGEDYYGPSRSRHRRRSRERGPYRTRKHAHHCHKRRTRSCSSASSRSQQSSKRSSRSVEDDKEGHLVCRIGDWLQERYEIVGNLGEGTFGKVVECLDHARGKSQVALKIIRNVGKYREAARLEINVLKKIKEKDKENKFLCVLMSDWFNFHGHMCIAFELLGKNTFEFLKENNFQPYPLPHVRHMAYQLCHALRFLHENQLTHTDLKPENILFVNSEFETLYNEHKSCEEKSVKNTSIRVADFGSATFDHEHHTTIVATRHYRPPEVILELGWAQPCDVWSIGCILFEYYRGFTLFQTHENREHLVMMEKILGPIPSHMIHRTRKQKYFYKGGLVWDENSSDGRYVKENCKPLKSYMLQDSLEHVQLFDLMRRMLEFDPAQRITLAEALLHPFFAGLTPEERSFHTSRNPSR
From the text: as §1

CLK4 = CLK4 (Homo sapiens (Human), UniProt Q9HAZ1)
CLK4, sequence (Q9HAZ1 whole entry): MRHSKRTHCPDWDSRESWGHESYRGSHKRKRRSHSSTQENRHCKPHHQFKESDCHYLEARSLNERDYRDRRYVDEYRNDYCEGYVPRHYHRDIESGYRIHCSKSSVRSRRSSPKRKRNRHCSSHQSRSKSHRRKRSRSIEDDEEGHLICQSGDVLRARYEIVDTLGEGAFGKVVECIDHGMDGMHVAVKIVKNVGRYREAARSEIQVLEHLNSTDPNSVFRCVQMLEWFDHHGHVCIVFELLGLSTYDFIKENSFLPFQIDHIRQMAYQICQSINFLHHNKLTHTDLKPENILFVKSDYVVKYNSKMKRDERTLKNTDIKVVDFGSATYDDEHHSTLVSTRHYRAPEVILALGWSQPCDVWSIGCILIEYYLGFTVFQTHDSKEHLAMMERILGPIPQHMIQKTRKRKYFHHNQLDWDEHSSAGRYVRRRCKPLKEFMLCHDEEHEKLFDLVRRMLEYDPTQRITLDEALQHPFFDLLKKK
From the text: as §1

DDR1 = DDR1 (Homo sapiens (Human), UniProt Q08345)
From the text: as §1

DMPK = DMPK (Homo sapiens (Human), UniProt Q09013)
From the text: as §1

EGFR = EGFR (Homo sapiens (Human), UniProt P00533)
From the text: as §1

FGFR2 = FGFR2 (Homo sapiens (Human), UniProt P21802)
From the text: as §1

FGR = FGR (Homo sapiens (Human), UniProt P09769)
From the text: as §1

HCK = HCK (Homo sapiens (Human), UniProt P08631)
From the text: as §1

LCK = LCK (Homo sapiens (Human), UniProt P06239)
From the text: as §1

LZK = LZK (Homo sapiens (Human), UniProt O43283)
From the text: as §1

MET = MET (Homo sapiens (Human), UniProt P08581)
From the text: as §1

MTOR = MTOR (Homo sapiens (Human), UniProt P42345)
From the text: as §1

NEK10 = NEK10 (Homo sapiens (Human), UniProt Q6ZWH5)
From the text: as §1

PDGFRA = PDGFRA (Homo sapiens (Human), UniProt P16234)
From the text: as §1

PIM2 = PIM2 (Homo sapiens (Human), UniProt Q9P1W9)
PIM2, sequence (Q9P1W9 whole entry): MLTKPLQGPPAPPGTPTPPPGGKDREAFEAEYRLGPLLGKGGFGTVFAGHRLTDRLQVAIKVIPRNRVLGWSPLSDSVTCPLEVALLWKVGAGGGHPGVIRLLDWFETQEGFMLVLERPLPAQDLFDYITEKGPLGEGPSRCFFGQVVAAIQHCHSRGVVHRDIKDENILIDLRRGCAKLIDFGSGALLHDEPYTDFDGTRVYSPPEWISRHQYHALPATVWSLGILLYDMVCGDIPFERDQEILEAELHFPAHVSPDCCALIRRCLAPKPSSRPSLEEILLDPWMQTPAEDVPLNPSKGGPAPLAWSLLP
From the text: as §1

PIP5K2B = PIP5K2B (Homo sapiens (Human), UniProt P78356)
From the text: as §1

PLK3 = PLK3 (Homo sapiens (Human), UniProt Q9H4B4)
From the text: as §1

PRKCD = PRKCD (Homo sapiens (Human), UniProt Q05655)
PRKCD, sequence (Q05655 whole entry): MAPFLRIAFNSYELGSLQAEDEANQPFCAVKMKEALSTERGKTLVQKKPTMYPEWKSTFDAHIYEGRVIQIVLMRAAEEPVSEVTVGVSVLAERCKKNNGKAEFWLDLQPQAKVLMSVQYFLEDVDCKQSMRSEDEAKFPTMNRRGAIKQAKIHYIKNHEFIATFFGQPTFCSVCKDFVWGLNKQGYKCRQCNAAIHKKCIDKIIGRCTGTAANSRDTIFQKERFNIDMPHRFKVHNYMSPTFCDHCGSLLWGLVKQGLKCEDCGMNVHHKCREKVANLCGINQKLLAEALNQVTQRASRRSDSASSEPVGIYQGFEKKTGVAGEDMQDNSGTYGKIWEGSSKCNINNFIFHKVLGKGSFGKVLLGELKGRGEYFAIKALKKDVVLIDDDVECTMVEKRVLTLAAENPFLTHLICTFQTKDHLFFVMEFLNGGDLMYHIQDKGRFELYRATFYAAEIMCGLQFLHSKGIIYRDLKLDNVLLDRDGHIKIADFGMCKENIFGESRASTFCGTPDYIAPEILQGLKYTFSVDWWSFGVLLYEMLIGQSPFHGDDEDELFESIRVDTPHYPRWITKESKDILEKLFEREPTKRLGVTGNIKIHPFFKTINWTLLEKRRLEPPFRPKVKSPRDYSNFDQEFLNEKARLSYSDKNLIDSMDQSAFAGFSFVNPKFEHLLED
From the text: as §1

PRKCH = PRKCH (Homo sapiens (Human), UniProt P24723)
From the text: as §1

PRKG1 = PRKG1 (Homo sapiens (Human), UniProt Q13976)
From the text: as §1

PRP4 = PRP4 (Homo sapiens (Human), UniProt Q13523)
PRP4, sequence (Q13523 whole entry, looked up): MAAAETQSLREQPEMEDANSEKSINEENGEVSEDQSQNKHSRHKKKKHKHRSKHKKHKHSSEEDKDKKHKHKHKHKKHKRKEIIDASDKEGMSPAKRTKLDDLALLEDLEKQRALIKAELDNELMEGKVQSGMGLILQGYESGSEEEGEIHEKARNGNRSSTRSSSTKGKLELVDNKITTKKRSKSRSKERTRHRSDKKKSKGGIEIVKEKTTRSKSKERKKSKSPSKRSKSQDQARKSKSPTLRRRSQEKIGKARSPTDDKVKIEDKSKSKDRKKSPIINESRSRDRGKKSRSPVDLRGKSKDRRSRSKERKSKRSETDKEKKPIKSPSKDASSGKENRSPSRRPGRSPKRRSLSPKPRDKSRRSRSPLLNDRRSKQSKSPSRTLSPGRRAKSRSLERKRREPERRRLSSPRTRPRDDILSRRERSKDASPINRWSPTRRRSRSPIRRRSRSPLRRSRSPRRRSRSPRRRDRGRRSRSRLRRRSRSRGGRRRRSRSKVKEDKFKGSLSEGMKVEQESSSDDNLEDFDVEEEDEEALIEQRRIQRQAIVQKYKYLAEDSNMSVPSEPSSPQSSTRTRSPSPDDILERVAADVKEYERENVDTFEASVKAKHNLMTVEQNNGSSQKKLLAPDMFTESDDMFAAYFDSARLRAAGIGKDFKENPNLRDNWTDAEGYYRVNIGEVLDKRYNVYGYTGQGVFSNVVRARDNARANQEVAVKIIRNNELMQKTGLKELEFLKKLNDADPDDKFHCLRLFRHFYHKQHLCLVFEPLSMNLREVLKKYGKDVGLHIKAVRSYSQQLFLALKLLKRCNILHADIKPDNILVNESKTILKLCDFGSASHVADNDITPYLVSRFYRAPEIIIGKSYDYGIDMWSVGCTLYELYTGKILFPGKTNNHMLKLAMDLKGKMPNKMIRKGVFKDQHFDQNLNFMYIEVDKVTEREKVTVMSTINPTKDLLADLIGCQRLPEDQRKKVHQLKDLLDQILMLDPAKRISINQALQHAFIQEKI
From the text: as §1

RIOK1 = RIOK1 (Homo sapiens (Human), UniProt Q9BRS2)
From the text: as §1

RIPK1 = RIPK1 (Homo sapiens (Human), UniProt Q13546)
From the text: as §1

RIPK4 = RIPK4 (Homo sapiens (Human), UniProt P57078)
RIPK4, sequence (P57078 whole entry): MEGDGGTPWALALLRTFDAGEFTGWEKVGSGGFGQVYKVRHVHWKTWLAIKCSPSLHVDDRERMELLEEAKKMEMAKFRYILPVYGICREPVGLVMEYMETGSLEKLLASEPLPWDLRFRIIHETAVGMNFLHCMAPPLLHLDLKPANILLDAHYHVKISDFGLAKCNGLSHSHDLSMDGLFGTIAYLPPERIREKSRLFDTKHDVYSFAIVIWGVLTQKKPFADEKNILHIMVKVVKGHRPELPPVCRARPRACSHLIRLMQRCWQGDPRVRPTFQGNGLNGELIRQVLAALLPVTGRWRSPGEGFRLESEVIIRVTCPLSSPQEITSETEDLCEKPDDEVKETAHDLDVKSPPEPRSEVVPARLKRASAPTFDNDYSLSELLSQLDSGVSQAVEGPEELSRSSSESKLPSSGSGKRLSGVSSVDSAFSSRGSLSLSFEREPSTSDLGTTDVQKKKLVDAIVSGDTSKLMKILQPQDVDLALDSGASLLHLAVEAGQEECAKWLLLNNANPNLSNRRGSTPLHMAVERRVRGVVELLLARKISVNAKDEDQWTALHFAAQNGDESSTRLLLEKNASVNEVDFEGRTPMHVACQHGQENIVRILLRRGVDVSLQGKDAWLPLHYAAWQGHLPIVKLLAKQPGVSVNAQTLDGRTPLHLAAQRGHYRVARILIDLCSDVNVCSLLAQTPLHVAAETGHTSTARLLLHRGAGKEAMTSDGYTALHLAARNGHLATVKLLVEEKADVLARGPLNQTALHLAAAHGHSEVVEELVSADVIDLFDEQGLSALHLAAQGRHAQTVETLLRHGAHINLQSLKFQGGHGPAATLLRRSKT
From the text: as §1

ROS1 = ROS1 (Homo sapiens (Human), UniProt P08922)
From the text: as §1

[3] = molecular target: RSK4(Kin.Dom.1-N-terminal) (Homo sapiens (Human), UniProt Q9UK32)
RSK4(Kin.Dom.1-N-terminal), sequence (Q9UK32 73-330 limits assumed): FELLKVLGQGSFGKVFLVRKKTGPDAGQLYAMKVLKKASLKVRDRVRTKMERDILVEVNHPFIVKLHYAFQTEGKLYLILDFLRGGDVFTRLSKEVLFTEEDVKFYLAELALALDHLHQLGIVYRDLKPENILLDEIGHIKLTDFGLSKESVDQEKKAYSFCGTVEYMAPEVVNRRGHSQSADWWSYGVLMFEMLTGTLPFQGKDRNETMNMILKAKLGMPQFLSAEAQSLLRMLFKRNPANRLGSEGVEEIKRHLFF
From the text: as §1

S6K1 = S6K1 (Homo sapiens (Human), UniProt P23443)
S6K1, sequence (P23443 whole entry): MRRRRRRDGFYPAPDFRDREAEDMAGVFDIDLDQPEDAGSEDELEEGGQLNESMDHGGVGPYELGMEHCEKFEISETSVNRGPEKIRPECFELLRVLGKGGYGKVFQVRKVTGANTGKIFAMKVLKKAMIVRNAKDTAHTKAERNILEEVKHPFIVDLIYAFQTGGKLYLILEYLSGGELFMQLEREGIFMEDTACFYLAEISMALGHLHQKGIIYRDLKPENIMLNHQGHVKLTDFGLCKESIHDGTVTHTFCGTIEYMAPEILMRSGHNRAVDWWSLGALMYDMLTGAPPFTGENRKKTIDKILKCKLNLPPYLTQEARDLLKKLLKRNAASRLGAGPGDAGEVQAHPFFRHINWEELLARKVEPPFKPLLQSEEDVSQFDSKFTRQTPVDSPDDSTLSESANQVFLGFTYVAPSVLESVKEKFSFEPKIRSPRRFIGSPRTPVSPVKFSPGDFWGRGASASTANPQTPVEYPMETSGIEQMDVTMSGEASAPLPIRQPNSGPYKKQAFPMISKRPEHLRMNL
From the text: as §1

SgK110 = SgK110 (Homo sapiens (Human), UniProt P0C264)
From the text: as §1

TRKB = TRKB (Homo sapiens (Human), UniProt Q16620)
From the text: as §1

TSSK1B = TSSK1B (Homo sapiens (Human), UniProt Q9BXA7)
From the text: as §1

ULK1 = ULK1 (Homo sapiens (Human), UniProt O75385)
From the text: as §1

YSK1 = YSK1 (Homo sapiens (Human), UniProt O00506)
YSK1, sequence (O00506 whole entry): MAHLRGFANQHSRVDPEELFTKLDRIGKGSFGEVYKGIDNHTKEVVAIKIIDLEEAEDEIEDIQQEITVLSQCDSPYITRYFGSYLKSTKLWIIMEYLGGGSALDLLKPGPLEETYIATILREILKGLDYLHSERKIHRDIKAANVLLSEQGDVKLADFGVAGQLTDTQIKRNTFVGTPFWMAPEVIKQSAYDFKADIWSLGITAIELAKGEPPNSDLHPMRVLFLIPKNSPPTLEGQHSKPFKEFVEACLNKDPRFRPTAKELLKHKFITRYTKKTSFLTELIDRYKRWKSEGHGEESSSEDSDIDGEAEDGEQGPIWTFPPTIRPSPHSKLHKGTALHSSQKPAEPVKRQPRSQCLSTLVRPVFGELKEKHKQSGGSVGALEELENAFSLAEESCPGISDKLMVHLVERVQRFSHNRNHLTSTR
From the text: as §1

YSK4 = YSK4 (Homo sapiens (Human), UniProt Q56UN5)
From the text: as §1

p38-alpha = p38-alpha (Homo sapiens (Human), UniProt Q16539)
From the text: as §1

p38-gamma = p38-gamma (Homo sapiens (Human), UniProt P53778)
From the text: as §1

CCN1CCN(Cc2ccc(Nc3nc4ccc(Oc5ccnc(NC(C)=O)c5)cc4n3C)cc2C(F)(F)F)CC1 [Compound I-2]
remaining binding at 1 µM [1]: 36%
remaining binding at 1 µM [2]: 62%
remaining binding at 1 µM (BRAF): 3.9%
remaining binding at 1 µM (BRK): 100%
remaining binding at 1 µM (CAMK1B): 50%
remaining binding at 1 µM (CAMKK1): 100%
remaining binding at 1 µM (CLK3): 94%
remaining binding at 1 µM (CLK4): 100%
remaining binding at 1 µM (DDR1): 0.05%
remaining binding at 1 µM (DMPK): 94%
remaining binding at 1 µM (EGFR): 79%
remaining binding at 1 µM (FGFR2): 100%
remaining binding at 1 µM (FGR): 100%
remaining binding at 1 µM (HCK): 89%
remaining binding at 1 µM (LCK): 18%
remaining binding at 1 µM (LZK): 100%
remaining binding at 1 µM (MET): 43%
remaining binding at 1 µM (MTOR): 100%
remaining binding at 1 µM (NEK10): 100%
remaining binding at 1 µM (PDGFRA): 3.8%
remaining binding at 1 µM (PIM2): 91%
remaining binding at 1 µM (PIP5K2B): 57%
remaining binding at 1 µM (PLK3): 81%
remaining binding at 1 µM (PRKCD): 92%
remaining binding at 1 µM (PRKCH): 100%
remaining binding at 1 µM (PRKG1): 100%
remaining binding at 1 µM (PRP4): 100%
remaining binding at 1 µM (RIOK1): 100%
remaining binding at 1 µM (RIPK1): 88%
remaining binding at 1 µM (RIPK4): 86%
remaining binding at 1 µM (ROS1): 73%
remaining binding at 1 µM [3]: 100%
remaining binding at 1 µM (S6K1): 82%
remaining binding at 1 µM (SgK110): 86%
remaining binding at 1 µM (TRKB): 36%
remaining binding at 1 µM (TSSK1B): 100%
remaining binding at 1 µM (ULK1): 100%
remaining binding at 1 µM (YSK1): 94%
remaining binding at 1 µM (YSK4): 51%
remaining binding at 1 µM (p38-alpha): 92%
remaining binding at 1 µM (p38-gamma): 58%

CCN1CCN(Cc2ccc(Nc3nc4ccc(Oc5ccnc(NC(C)=O)c5)c(C)c4n3C)cc2C(F)(F)F)CC1 [Compound I-6, N-(4-(2-(4-((4-ethylpiperazin-1-yl)methyl)-3-(trifluoromethyl)phenylamino)-1,7-dimethyl-1H-benzo[d]imidazol-6-yloxy)pyridin-2-yl)acetamide]
remaining binding at 1 µM [1]: 24%
remaining binding at 1 µM [2]: 87%
remaining binding at 1 µM (BRAF): 9.2%
remaining binding at 1 µM (BRK): 89%
remaining binding at 1 µM (CAMK1B): 43%
remaining binding at 1 µM (CAMKK1): 100%
remaining binding at 1 µM (CLK3): 95%
remaining binding at 1 µM (CLK4): 81%
remaining binding at 1 µM (DDR1): 0%
remaining binding at 1 µM (DMPK): 100%
remaining binding at 1 µM (EGFR): 100%
remaining binding at 1 µM (FGFR2): 82%
remaining binding at 1 µM (FGR): 51%
remaining binding at 1 µM (HCK): 34%
remaining binding at 1 µM (LCK): 1.6%
remaining binding at 1 µM (LZK): 75%
remaining binding at 1 µM (MET): 40%
remaining binding at 1 µM (MTOR): 100%
remaining binding at 1 µM (NEK10): 79%
remaining binding at 1 µM (PDGFRA): 4.2%
remaining binding at 1 µM (PIM2): 92%
remaining binding at 1 µM (PIP5K2B): 98%
remaining binding at 1 µM (PLK3): 93%
remaining binding at 1 µM (PRKCD): 89%
remaining binding at 1 µM (PRKCH): 87%
remaining binding at 1 µM (PRKG1): 98%
remaining binding at 1 µM (PRP4): 100%
remaining binding at 1 µM (RIOK1): 100%
remaining binding at 1 µM (RIPK1): 96%
remaining binding at 1 µM (RIPK4): 97%
remaining binding at 1 µM (ROS1): 43%
remaining binding at 1 µM [3]: 93%
remaining binding at 1 µM (S6K1): 84%
remaining binding at 1 µM (SgK110): 100%
remaining binding at 1 µM (TRKB): 1.4%
remaining binding at 1 µM (TSSK1B): 100%
remaining binding at 1 µM (ULK1): 56%
remaining binding at 1 µM (YSK1): 65%
remaining binding at 1 µM (YSK4): 67%
remaining binding at 1 µM (p38-alpha): 44%
remaining binding at 1 µM (p38-gamma): 62%
